Measurements reported in patent publication US6737383B1, “Herbicidal oxadiazolidines” (priority 1999, dated 2004).

Legend:
bedstraw = assay: Test B pre/postemergence bedstraw; assay type: in vivo, Galium aparine
In short: (§1)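 Test chemicals in a non-phytotoxic solvent mixture with surfactant were sprayed preemergence onto planted seeds and postemergence onto plants 2 to 18 cm tall (1- to 4-leaf stage). After twelve to sixteen days in a greenhouse, injury was visually rated against untreated controls from 0 (no effect) to 10 (complete control).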

blackgrass = assay: Test B pre/postemergence blackgrass; assay type: in vivo, Alopecurus myosuroides
In short: as §1

surinam grass = assay: Test B pre/postemergence surinam grass; assay type: in vivo, Brachiaria decumbens; details: Postemergence
In short: as §1

cocklebur = assay: Test B pre/postemergence cocklebur; assay type: in vivo, Xanthium strumarium
In short: as §1

corn = assay: Test B pre/postemergence corn; assay type: in vivo, Zea mays
In short: as §1

crabgrass = assay: Test B pre/postemergence crabgrass; assay type: in vivo, Digitaria sanguinalis
In short: as §1

giant foxtail = assay: Test B pre/postemergence giant foxtail; assay type: in vivo, Setaria faberii
In short: as §1

morningglory = assay: Test B pre/postemergence morningglory; assay type: in vivo, Ipomoea hederacea
In short: as §1

pigweed = assay: Test B pre/postemergence pigweed; assay type: in vivo, Amaranthus retroflexus
In short: as §1

rape = assay: Test B pre/postemergence rape; assay type: in vivo, Brassica napus
In short: as §1

soybean = assay: Test B pre/postemergence soybean; assay type: in vivo, Glycine max
In short: as §1

sugar beet = assay: Test B pre/postemergence sugar beet; assay type: in vivo, Beta vulgaris
In short: as §1

velvetleaf = assay: Test B pre/postemergence velvetleaf; assay type: in vivo, Abutilon theophrasti
In short: as §1

wheat = assay: Test B pre/postemergence wheat; assay type: in vivo, Triticum aestivum
In short: as §1

wild oat = assay: Test B pre/postemergence wild oat; assay type: in vivo, Avena fatua
In short: as §1

purple nutsedge = assay: Test B pre/postemergence purple nutsedge; assay type: in vivo, Cyperus rotundus
In short: as §1

[1] = Postemergence, Rate 62 g/ha, scale 0 to 10, 0 is no effect, 10 is complete control
[2] = Postemergence, Rate 125 g/ha, scale of 0 to 10 where 0 is no effect and 10 is complete control
[3] = Preemergence, Rate 125 g/ha, scale of 0 to 10 where 0 is no effect and 10 is complete control
[4] = Preemergence, Rate 250 g/ha, scale 0 (no effect) to 10 (complete control)
[5] = Rate 500 g/ha, Postemergence, scale 0 to 10, 0 is no effect, 10 is complete control
[6] = Rate 500 g/ha, Preemergence, scale 0 to 10 (0 no effect, 10 complete control)
[7] = Rate 62 g/ha, Preemergence, scale 0 to 10
[8] = Rate 250 g/ha, Postemergence, scale 0 to 10, 0 is no effect, 10 is complete control

**Q.** What does the source list for `CCC(C)n1c(=O)on(C(=O)N(c2ccc(F)cc2)C(C)C)c1=O` (stereo not shown) [Compound 751]?
**A.** Plant response rating, Bedstraw (bedstraw; [1]): 0; Bedstraw plant response rating (bedstraw; [2]): 5; Plant response rating, Bedstraw (bedstraw; [3]): 2; Bedstraw plant response rating (bedstraw; [4]): 9; Bedstraw plant response rating (bedstraw; [5]): 7; Bedstraw plant response rating (bedstraw; [6]): 10; Plant response rating, Blackgrass (blackgrass; [1]): 6; Blackgrass plant response rating (blackgrass; [2]): 6; Plant response rating, Blackgrass (blackgrass; [3]): 10; Blackgrass plant response rating (blackgrass; [4]): 10; Blackgrass plant response rating (blackgrass; [7]): 9; Blackgrass plant response rating (blackgrass; [8]): 6; Blackgrass plant response rating (blackgrass; [5]): 7; Blackgrass plant response rating (blackgrass; [6]): 10; Plant response rating, B. signalgrass (surinam grass; Rate 62 g/ha, scale 0 to 10, 0 is no effect, 10 is complete control): 3; B. signalgrass plant response rating (surinam grass; Rate 125 g/ha, scale of 0 to 10 where 0 is no effect and 10 is complete control): 3; B. signalgrass plant response rating (surinam grass; Rate 250 g/ha, scale 0 to 10, 0 is no effect, 10 is complete control): 6; B. signalgrass plant response rating (surinam grass; Rate 500 g/ha, scale 0 to 10, 0 is no effect, 10 is complete control): 7; Plant response rating, Cocklebur (cocklebur; [1]): 0; Cocklebur plant response rating (cocklebur; [2]): 2; Plant response rating, Cocklebur (cocklebur; [3]): 0; Cocklebur plant response rating (cocklebur; [4]): 0; Cocklebur plant response rating (cocklebur; [7]): 0; Cocklebur plant response rating (cocklebur; [8]): 2; Cocklebur plant response rating (cocklebur; [5]): 2; Cocklebur plant response rating (cocklebur; [6]): 0; Plant response rating, Corn (corn; [1]): 0; Corn plant response rating (corn; [2]): 0; Plant response rating, Corn (corn; [3]): 4; Corn plant response rating (corn; [4]): 8; Corn plant response rating (corn; [7]): 0; Corn plant response rating (corn; [8]): 0; Corn plant response rating (corn; [5]): 2; Corn plant response rating (corn; [6]): 9; Plant response rating, Crabgrass (crabgrass; [1]): 7; Crabgrass plant response rating (crabgrass; [2]): 8; Plant response rating, Crabgrass (crabgrass; [3]): 10; Crabgrass plant response rating (crabgrass; [4]): 10; Crabgrass plant response rating (crabgrass; [7]): 10; Crabgrass plant response rating (crabgrass; [8]): 9; Crabgrass plant response rating (crabgrass; [5]): 9; Crabgrass plant response rating (crabgrass; [6]): 10; Plant response rating, Giant foxtail (giant foxtail; [1]): 8; Giant foxtail plant response rating (giant foxtail; [2]): 9; Plant response rating, Giant foxtail (giant foxtail; [3]): 10; Giant foxtail plant response rating (giant foxtail; [4]): 10; Giant foxtail plant response rating (giant foxtail; [7]): 10; Giant foxtail plant response rating (giant foxtail; [8]): 9; Giant foxtail plant response rating (giant foxtail; [5]): 9; Giant foxtail plant response rating (giant foxtail; [6]): 10; Plant response rating, Morningglory (morningglory; [1]): 8; Morningglory plant response rating (morningglory; [2]): 8; Plant response rating, Morningglory (morningglory; [3]): 5; Morningglory plant response rating (morningglory; [4]): 5; Morningglory plant response rating (morningglory; [7]): 0; Morningglory plant response rating (morningglory; [8]): 8; Morningglory plant response rating (morningglory; [5]): 9; Morningglory plant response rating (morningglory; [6]): 5; Redroot pigweed plant response rating (pigweed; [2]): 6; Plant response rating, Redroot pigweed (pigweed; [3]): 10; Redroot pigweed plant response rating (pigweed; [4]): 10; Redroot pigweed plant response rating (pigweed; [7]): 10; Redroot pigweed plant response rating (pigweed; [8]): 9; Redroot pigweed plant response rating (pigweed; [5]): 9; Redroot pigweed plant response rating (pigweed; [6]): 10; Plant response rating, Rape (rape; [1]): 2; Rape plant response rating (rape; [2]): 3; Plant response rating, Rape (rape; [3]): 6; Rape plant response rating (rape; [4]): 7; Rape plant response rating (rape; [7]): 4; Rape plant response rating (rape; [8]): 5; Rape plant response rating (rape; [5]): 5; Rape plant response rating (rape; [6]): 9; Plant response rating, Soybean (soybean; [1]): 2; Soybean plant response rating (soybean; [2]): 3; Plant response rating, Soybean (soybean; [3]): 0; Soybean plant response rating (soybean; [4]): 7; Soybean plant response rating (soybean; [7]): 0; Soybean plant response rating (soybean; [8]): 7; Soybean plant response rating (soybean; [5]): 7; Soybean plant response rating (soybean; [6]): 9; Plant response rating, Sugarbeets (sugar beet; [1]): 3; Sugarbeets plant response rating (sugar beet; [2]): 3; Plant response rating, Sugarbeets (sugar beet; [3]): 2; Sugarbeets plant response rating (sugar beet; [4]): 5; Sugarbeets plant response rating (sugar beet; [7]): 2; Sugarbeets plant response rating (sugar beet; [8]): 3; Sugarbeets plant response rating (sugar beet; [5]): 3; Sugarbeets plant response rating (sugar beet; [6]): 7; Plant response rating, Velvetleaf (velvetleaf; [1]): 0; Velvetleaf plant response rating (velvetleaf; [2]): 2; Plant response rating, Velvetleaf (velvetleaf; [3]): 8; Velvetleaf plant response rating (velvetleaf; [4]): 8; Velvetleaf plant response rating (velvetleaf; [7]): 7; Velvetleaf plant response rating (velvetleaf; [8]): 2; Velvetleaf plant response rating (velvetleaf; [5]): 3; Velvetleaf plant response rating (velvetleaf; [6]): 8; Plant response rating, Wheat (wheat; [1]): 0; Wheat plant response rating (wheat; [2]): 0; Plant response rating, Wheat (wheat; [3]): 4; Wheat plant response rating (wheat; [4]): 5; Wheat plant response rating (wheat; [7]): 0; Wheat plant response rating (wheat; [8]): 5; Wheat plant response rating (wheat; [5]): 3; Wheat plant response rating (wheat; [6]): 10; Plant response rating, Wild oats (wild oat; [1]): 0; Wild oats plant response rating (wild oat; [2]): 0; Plant response rating, Wild oats (wild oat; [3]): 8; Wild oats plant response rating (wild oat; [4]): 10; Wild oats plant response rating (wild oat; [7]): 3; Wild oats plant response rating (wild oat; [8]): 3; Wild oats plant response rating (wild oat; [5]): 5; Wild oats plant response rating (wild oat; [6]): 10; Plant response rating, Nutsedge (purple nutsedge; [1]): 0; Nutsedge plant response rating (purple nutsedge; [2]): 0; Plant response rating, Nutsedge (purple nutsedge; [3]): 0; Nutsedge plant response rating (purple nutsedge; [4]): 0; Nutsedge plant response rating (purple nutsedge; [7]): 0; Nutsedge plant response rating (purple nutsedge; [8]): 0; Nutsedge plant response rating (purple nutsedge; [5]): 10; Nutsedge plant response rating (purple nutsedge; [6]): 0
